Measurements published in ChEMBL document CHEMBL3727345, “New compounds” (2012).

Target: fructose-2,6-bisphosphatase 3/4 (Homo sapiens) (UniProt Q16875+Q16877)
Test: Inhibition of PFKFB3/PFKFB4 in human Panc1 cells assessed as fructose -2,6-bisphosphate production at 12.5 uM preincubated for 1 hr followed by addition of D-glucose measured after 2 hrs by spectrophotometry
Format: cell-based
Conditions: PANC-1

fructose-2,6-bisphosphatase 3/4 (Homo sapiens), sequence (Q16875 whole entry, looked up): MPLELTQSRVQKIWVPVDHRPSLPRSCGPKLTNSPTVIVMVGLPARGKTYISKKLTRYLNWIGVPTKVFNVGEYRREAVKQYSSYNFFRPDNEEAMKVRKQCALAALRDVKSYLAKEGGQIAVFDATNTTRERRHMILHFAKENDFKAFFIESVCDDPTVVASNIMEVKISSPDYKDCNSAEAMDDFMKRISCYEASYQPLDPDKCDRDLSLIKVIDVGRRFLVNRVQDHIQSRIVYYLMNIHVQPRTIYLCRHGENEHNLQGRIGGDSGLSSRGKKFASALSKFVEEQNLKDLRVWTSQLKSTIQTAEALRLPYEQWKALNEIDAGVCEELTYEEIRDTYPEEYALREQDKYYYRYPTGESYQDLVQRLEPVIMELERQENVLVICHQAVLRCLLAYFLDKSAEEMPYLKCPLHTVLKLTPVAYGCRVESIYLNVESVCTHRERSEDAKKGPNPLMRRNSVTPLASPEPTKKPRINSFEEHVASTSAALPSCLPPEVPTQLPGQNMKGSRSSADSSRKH
fructose-2,6-bisphosphatase 3/4 (Homo sapiens), sequence (Q16877 whole entry, looked up): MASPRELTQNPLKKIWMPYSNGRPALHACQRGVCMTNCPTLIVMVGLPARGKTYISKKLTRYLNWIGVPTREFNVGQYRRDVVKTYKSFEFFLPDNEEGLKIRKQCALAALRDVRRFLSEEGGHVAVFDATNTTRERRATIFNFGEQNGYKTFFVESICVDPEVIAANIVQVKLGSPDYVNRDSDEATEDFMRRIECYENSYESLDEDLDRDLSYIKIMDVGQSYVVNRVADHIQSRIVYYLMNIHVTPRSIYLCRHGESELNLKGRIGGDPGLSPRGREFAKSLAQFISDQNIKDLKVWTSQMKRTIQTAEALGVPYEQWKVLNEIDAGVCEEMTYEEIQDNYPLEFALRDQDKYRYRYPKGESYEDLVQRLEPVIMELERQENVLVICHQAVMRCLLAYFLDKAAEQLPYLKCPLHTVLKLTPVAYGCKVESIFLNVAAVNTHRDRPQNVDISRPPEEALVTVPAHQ

inhibition [%]	Compound
> 50	CCOC(=O)c1sc(NS(=O)(=O)c2cc(-c3cc(F)ccc3F)c(Cl)s2)nc1C
> 50	CCCCCOC(=O)c1cccc(NS(=O)(=O)c2sc3ccc(Cl)cc3c2C)c1
> 50	Cc1c(S(=O)(=O)Nc2cccc(C(=O)OCc3ccccc3)c2)sc2ccc(Cl)cc12
> 50	Cc1c(S(=O)(=O)Nc2cccc(C(=O)OCC3CCOC3)c2)sc2ccc(Cl)cc12 (stereo not given)
> 50	Cc1c(S(=O)(=O)Nc2cccc(C(=O)Oc3ccccc3)c2)sc2ccc(Cl)cc12

Further lines, the compound ahead of its results:

Compound	inhibition [%]
CCOC(=O)c1cccc(NS(=O)(=O)c2sc3ccc(Cl)cc3c2C)c1	> 50
Cc1c(S(=O)(=O)Nc2cccc(C(=O)OCCn3cccc3)c2)sc2ccc(Cl)cc12	> 50
CCOC(=O)c1sc(NS(=O)(=O)c2sc3ccc(Cl)cc3c2C)nc1C	> 50
COC(=O)c1cccc(NS(=O)(=O)c2oc3ccc(C(C)C)cc3c2C)c1	> 50
COCCOC(=O)c1cccc(NS(=O)(=O)c2sc3ccc(Cl)cc3c2C)c1	> 50
